# Earlier results in patent US20250152987A1 (priority 2022, published 2025).
# System: SARS CoV-2 virus
compound,measurement,value
CN(C)c1ccc2nc3ccc(=[N+](C)C)cc-3sc2c1 [methylene blue],inactivation of SARS CoV-2 virus,inactivation
